# “And” between values parts separate entries of the source, which are not always exact repeats. Identical values can stand only once. Records with an inconclusive call do not appear. Residues, ends and D or L forms follow the SMILES beside them. *: point of attachment. Trt = c1ccc(C(c2ccccc2)(c2ccccc2)*)cc1; Cbz = O=C(OCc1ccccc1)*
# System: nude mice, HT29 intrarenal xenograft, tumor weight T/C
# Experiment: NCI In Vivo Anticancer Drug Screen. Data for tumor model HT29;CX-1 Human Adenocarcinoma (MER+) (intrarenal inoculation) in NU/NU Swiss (nude) mice
# Conditions: endpoint: mean tumor weight change, higher = larger tumour
# Summary of the method: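 Tumor-bearing mice received test compound or vehicle, and tumor size or survival was recorded. Values are the treated-group measurement divided by the vehicle-treated control measurement.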
# [1] = dose: 37.5 mg/kg/injection, schedule: Q04DX004 (sc), vehicle: water
# [2] = dose: 100.0 mg/kg/injection, schedule: Q04DX004 (sc), vehicle: water
# [3] = dose: 2.0 mg/kg/injection, schedule: Q01DX010 (sc), vehicle: saline
# [4] = dose: 4.0 mg/kg/injection, schedule: Q01DX010 (sc), vehicle: saline
# [5] = dose: 8.0 mg/kg/injection, schedule: Q01DX010 (sc), vehicle: saline
# [6] = dose: 100.0 mg/kg/injection, schedule: Q01DX010 (sc), vehicle: saline with Tween-80
# [7] = dose: 200.0 mg/kg/injection, schedule: Q04DX004 (sc), vehicle: Klucel (hydroxypropylcellulose) (HPC)
# [8] = dose: 400.0 mg/kg/injection, schedule: Q04DX004 (sc), vehicle: Klucel (hydroxypropylcellulose) (HPC)
# [9] = dose: 50.0 mg/kg/injection, schedule: Q04DX004 (sc), vehicle: Klucel (hydroxypropylcellulose) (HPC)
structure (smiles),measurement,setting,value
CNc1n[n+](-c2ccccc2)no1,T/C,[1],117 % of control
same,T/C,"dose: 75.0 mg/kg/injection, schedule: Q04DX004 (sc), vehicle: water",115 % of control
O=c1[nH]c(=O)n(C2CC(O)C(CO)O2)cc1Br (stereo not given),T/C,"dose: 600.0 mg/kg/injection, schedule: Q04DX004 (sc), vehicle: Klucel (hydroxypropylcellulose) (HPC)",157 % of control
same,T/C,"dose: 1200.0 mg/kg/injection, schedule: Q04DX004 (sc), vehicle: Klucel (hydroxypropylcellulose) (HPC)",91 % of control
same,T/C,"dose: 2400.0 mg/kg/injection, schedule: Q04DX004 (sc), vehicle: Klucel (hydroxypropylcellulose) (HPC)",59 % of control
Nc1n[n+](-c2ccc(Cl)cc2)no1,T/C,"dose: 25.0 mg/kg/injection, schedule: Q04DX004 (sc), vehicle: water",95 % of control
same,T/C,"dose: 50.0 mg/kg/injection, schedule: Q04DX004 (sc), vehicle: water",121 % of control
same,T/C,[2],102 % of control
COc1cc([C@@H]2c3cc4c(c(O)c3C[C@H]3COC(=O)[C@@H]32)OCO4)cc(OC)c1OC,T/C,[3],46 % of control
same,T/C,[4],58 % of control
same,T/C,[5],25 % of control
C[C@]12CC[C@H]3[C@@H](CCC4=C[C@@H](OC5OCC(OC6OC(CO)C(O)C(O)C6O)C(O)C5O)CC[C@@]43C=O)[C@@]1(O)CCC2C1=CC(=O)OC1 (stereo not given in full),T/C,"dose: 3.75 mg/kg/injection, schedule: Q04DX004 (sc), vehicle: Klucel (hydroxypropylcellulose) (HPC)",67 % of control
same,T/C,"dose: 7.5 mg/kg/injection, schedule: Q04DX004 (sc), vehicle: Klucel (hydroxypropylcellulose) (HPC)",97 % of control
same,T/C,"dose: 15.0 mg/kg/injection, schedule: Q04DX004 (sc), vehicle: Klucel (hydroxypropylcellulose) (HPC)",93 % of control
same,T/C,"dose: 30.0 mg/kg/injection, schedule: Q04DX004 (sc), vehicle: Klucel (hydroxypropylcellulose) (HPC)",110 % of control
COC(=O)C(CSC(c1ccccc1)(c1ccccc1)c1ccccc1)NC(=O)C(CC(N)=O)NC(=O)OCc1ccccc1 (stereo not drawn) (Cbz-Asn-Cys(Trt)-OMe; configuration not given here),T/C,"dose: 150.0 mg/kg/injection, schedule: Q04DX004 (sc), vehicle: distilled water + Tween-80",63 % of control
same,T/C,"dose: 300.0 mg/kg/injection, schedule: Q04DX004 (sc), vehicle: distilled water + Tween-80",69 % of control
same,T/C,"dose: 600.0 mg/kg/injection, schedule: Q04DX004 (sc), vehicle: distilled water + Tween-80",81 % of control
same,T/C,"dose: 1200.0 mg/kg/injection, schedule: Q04DX004 (sc), vehicle: distilled water + Tween-80",83 % of control
CCCCCCCCCCCCCCCCS(=O)CC(O)COC(=O)c1ccc(C(=O)OCC(O)CS(=O)CCCCCCCCCCCCCCCC)cc1 (stereo not given),T/C,"dose: 50.0 mg/kg/injection, schedule: Q01DX010 (sc), vehicle: saline + Tween-80 + alcohol",114 % of control
same,T/C,"dose: 400.0 mg/kg/injection, schedule: Q01DX010 (sc), vehicle: saline + Tween-80 + alcohol",93 % of control and 110 % of control
COc1ccc(OC)c(/C=C/c2ccnc3ccccc23)c1,T/C,[6],92 % of control
same,T/C,"dose: 200.0 mg/kg/injection, schedule: Q01DX010 (sc), vehicle: saline with Tween-80",61 % of control
same,T/C,"dose: 400.0 mg/kg/injection, schedule: Q01DX010 (sc), vehicle: saline with Tween-80",91 % of control
same,T/C,"dose: 800.0 mg/kg/injection, schedule: Q01DX010 (sc), vehicle: saline with Tween-80",113 % of control
Nc1cc(Cl)c2[nH]cnc2n1,T/C,[2],160 % of control
same,T/C,"dose: 400.0 mg/kg/injection, schedule: Q04DX004 (sc), vehicle: water",96 % of control
C[C@H](N)C(=O)N[C@@H]1[C@H]2C(=C(O)C[C@@H](O)[C@@H]2O)C(=O)O[C@@H]1C,T/C,"dose: 300.0 mg/kg/injection, schedule: Q04DX004 (sc), vehicle: saline",107 % of control
same,T/C,"dose: 600.0 mg/kg/injection, schedule: Q04DX004 (sc), vehicle: saline",81 % of control
same,T/C,"dose: 1200.0 mg/kg/injection, schedule: Q04DX004 (sc), vehicle: saline",68 % of control
same,T/C,"dose: 2400.0 mg/kg/injection, schedule: Q04DX004 (sc), vehicle: saline",92 % of control
CSc1nc(=O)[nH]nc1SCc1ccccc1,T/C,[7],76 % of control
same,T/C,[8],56 % of control
same,T/C,"dose: 800.0 mg/kg/injection, schedule: Q04DX004 (sc), vehicle: Klucel (hydroxypropylcellulose) (HPC)",90 % of control
CN(C)N=Nc1cn[nH]c1C(N)=O,T/C,"dose: 300.0 mg/kg/injection, schedule: Q04DX004 (sc), vehicle: suspension in saline",85 % of control
same,T/C,"dose: 600.0 mg/kg/injection, schedule: Q04DX004 (sc), vehicle: suspension in saline",67 % of control
same,T/C,"dose: 1200.0 mg/kg/injection, schedule: Q04DX004 (sc), vehicle: suspension in saline",74 % of control
O=NN(CCCl)C(=O)NCCCl,T/C,[3],80 % of control
same,T/C,[4],66 % of control
same,T/C,[5],61 % of control and 70 % of control
same,T/C,"dose: 15.0 mg/kg/injection, schedule: Q04DX004 (sc), vehicle: suspension in saline",100 % of control
same,T/C,"dose: 30.0 mg/kg/injection, schedule: Q04DX004 (sc), vehicle: suspension in saline",69 % of control
same,T/C,"dose: 60.0 mg/kg/injection, schedule: Q04DX004 (sc), vehicle: suspension in saline",41 % of control
Nc1ncn(C2CC(O)C(CO)O2)c(=O)n1 (stereo not given),T/C,"dose: 0.2 mg/kg/injection, schedule: Q01DX010 (sc), vehicle: saline",84 % of control
CN(C)c1nc(N(C)C)nc(N(C)C)n1,T/C,"dose: 15.0 mg/kg/injection, schedule: Q01DX010 (sc), vehicle: saline with Tween-80",90 % of control
same,T/C,"dose: 30.0 mg/kg/injection, schedule: Q01DX010 (sc), vehicle: saline with Tween-80",81 % of control and 101 % of control and 222 % of control
C=CC(=O)NCNC(=O)C=C,T/C,"dose: 25.0 mg/kg/injection, schedule: Q01DX010 (sc), vehicle: saline",217 % of control and 220 % of control
same,T/C,"dose: 100.0 mg/kg/injection, schedule: Q01DX010 (sc), vehicle: saline",213 % of control
COC(C(=O)C(O)C(C)O)C1Cc2cc3cc(OC4CC(OC(C)=O)C(OC5CC(O)C(OC)C(C)O5)C(C)O4)cc(O)c3c(O)c2C(=O)C1OC1CC(OC2CC(OC3CC(C)(O)C(OC(=O)C(C)C)C(C)O3)C(O)C(C)O2)C(O)C(C)O1 (stereo not given),T/C,"dose: 0.5 mg/kg/injection, schedule: Q01DX010 (sc), vehicle: saline with Tween-80",73 % of control
same,T/C,"dose: 1.0 mg/kg/injection, schedule: Q01DX010 (sc), vehicle: saline with Tween-80",97 % of control
same,T/C,"dose: 1.0 mg/kg/injection, schedule: Q04DX004 (sc), vehicle: saline with Tween-80",95 % of control
same,T/C,"dose: 2.0 mg/kg/injection, schedule: Q01DX010 (sc), vehicle: saline with Tween-80",105 % of control
same,T/C,"dose: 2.0 mg/kg/injection, schedule: Q04DX004 (sc), vehicle: saline with Tween-80",47 % of control
same,T/C,"dose: 4.0 mg/kg/injection, schedule: Q04DX004 (sc), vehicle: saline with Tween-80",50 % of control
COc1ccc2c(c1)CCC(c1ccccc1)=C2c1ccc(OCCN2CCCC2)cc1,T/C,[9],87 % of control
same,T/C,[7],108 % of control
same,T/C,[8],52 % of control
C/C(=N/NC(N)=S)c1ccc2ccccc2c1,T/C,"dose: 12.5 mg/kg/injection, schedule: Q01DX010 (sc), vehicle: saline with Tween-80",177 % of control
same,T/C,"dose: 25.0 mg/kg/injection, schedule: Q01DX010 (sc), vehicle: saline with Tween-80",70 % of control
same,T/C,"dose: 50.0 mg/kg/injection, schedule: Q01DX010 (sc), vehicle: saline with Tween-80",57 % of control
same,T/C,[6],89 % of control
Cc1cc2nc3c(=O)[nH]c(=O)nc-3n(CC(O)C(O)C(O)C(O)CO)c2cc1C (stereo not given),T/C,"dose: 600.0 mg/kg/injection, schedule: Q04DX004 (sc), vehicle: saline with Tween-80",94 % of control
same,T/C,"dose: 1200.0 mg/kg/injection, schedule: Q04DX004 (sc), vehicle: saline with Tween-80",78 % of control
same,T/C,"dose: 2400.0 mg/kg/injection, schedule: Q04DX004 (sc), vehicle: saline with Tween-80",90 % of control
CCN(CC)Cc1cc2[nH]c3c4ccc(Cl)cc4ncc3c2cc1OC,T/C,"dose: 37.5 mg/kg/injection, schedule: Q04DX004 (sc), vehicle: saline with Tween-80",187 % of control
same,T/C,"dose: 150.0 mg/kg/injection, schedule: Q04DX004 (sc), vehicle: saline with Tween-80",161 % of control
same,T/C,"dose: 300.0 mg/kg/injection, schedule: Q04DX004 (sc), vehicle: saline with Tween-80",94 % of control
CNC(=O)OCc1c(COC(=O)NC)c(C)n(-c2ccc(OC)cc2)c1C,T/C,[9],69 % of control
same,T/C,"dose: 100.0 mg/kg/injection, schedule: Q04DX004 (sc), vehicle: Klucel (hydroxypropylcellulose) (HPC)",90 % of control
same,T/C,[7],46 % of control
same,T/C,[8],36 % of control
COc1cc(NCc2ccc3nc(N)nc(N)c3c2C)cc(OC)c1OC,T/C,"dose: 9.35 mg/kg/injection, schedule: Q04DX004 (sc), vehicle: water",88 % of control
same,T/C,"dose: 10.0 mg/kg/injection, schedule: Q01DX010 (sc), vehicle: sodium bicarbonate",35 % of control
same,T/C,"dose: 18.7 mg/kg/injection, schedule: Q04DX004 (sc), vehicle: water",117 % of control
same,T/C,[1],32 % of control

# — PubChem BioAssay AID206 (DTP/NCI, 2004)
